Assay results from patent US6559101B2, “N- (5, 7-dimethoxy [1, 2, 4] triazolo [1, 5-a] pyrimidin-2-yl) arylsulfonamide compounds and their use as herbicides” (Dow AgroSciences LLC, priority 2000, dated 2003).

Legend:
Type in all cases: in vivo
[1] = system: Rox orange sorghum (Sorghum bicolor); test: Preemergence herbicidal activity; details: scored after 3 weeks, 0 no injury, 100 complete kill or no germination
In short: (§1)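 Seeded pots received a pre-emergence spray of compound diluted in aqueous Tween 155 (from an acetone/DMSO stock), highest rate 4.48 kg/ha; blank-treated pots served as controls. After 3 weeks under greenhouse lighting and temperature, plants were scored 0-100%, where 100 means total kill or failure to germinate.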

[2] = system: crabgrass (Digitaria sanguinalis); test: Preemergence herbicidal activity; details: scored after 3 weeks, 0 no injury, 100 complete kill or no germination
In short: as §1

[3] = system: cocklebur (Xanthium strumarium); test: Preemergence herbicidal activity; details: scored after 3 weeks, 0 no injury, 100 complete kill or no germination
In short: as §1

[4] = system: lambsquarters (Chenopodium album); test: Preemergence herbicidal activity; details: scored after 3 weeks, 0 no injury, 100 complete kill or no germination
In short: as §1

[5] = system: giant foxtail (Setaria faberi); test: Preemergence herbicidal activity; details: scored after 3 weeks, 0 no injury, 100 complete kill or no germination
In short: as §1

[6] = system: morningglory (Ipomoea hederacea); test: Preemergence herbicidal activity; details: scored after 3 weeks, 0 no injury, 100 complete kill or no germination
In short: as §1

[7] = system: blackgrass (Alopecurus myosuroides); test: Preemergence herbicidal activity; details: scored after 3 weeks, 0 no injury, 100 complete kill or no germination
In short: as §1

[8] = system: barnyardgrass (Echinochloa crus-galli); test: Preemergence herbicidal activity; details: scored after 3 weeks, 0 no injury, 100 complete kill or no germination
In short: as §1

[9] = system: velvetleaf (Abutilion theophrasti); test: Preemergence herbicidal activity; details: scored after 3 weeks, 0 no injury, 100 complete kill or no germination
In short: as §1

[10] = system: wild poinsettia (Euphorbia heterophylla); test: Preemergence herbicidal activity; details: scored after 3 weeks, 0 no injury, 100 complete kill or no germination
In short: as §1

[11] = system: pigweed (Amaranthus retroflexus); test: Preemergence herbicidal activity; details: scored after 3 weeks, 0 no injury, 100 complete kill or no germination
In short: as §1

wild oats (Avena fatua) [12] = test: Preemergence herbicidal activity; details: scored after 3 weeks, 0 no injury, 100 complete kill or no germination
In short: as §1

viola (Viola tricolor) = test: Postemergence herbicidal activity; details: scored after 2 weeks, 0 no injury, 100 complete kill
In short: (§2)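 Percent injury, rated visually two weeks after application against untreated plants, reflects a thorough-coverage spray given at the first to second true leaf stage. Application rates in ppm approximate g/ha (1 ppm ≈ 1 g/ha).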

[13] = system: Rox orange sorghum (Sorghum bicolor); test: Postemergence herbicidal activity; details: scored after 2 weeks, 0 no injury, 100 complete kill
In short: as §2

[14] = system: cocklebur (Xanthium strumarium); test: Postemergence herbicidal activity; details: scored after 2 weeks, 0 no injury, 100 complete kill
In short: as §2

[15] = system: lambsquarters (Chenopodium album); test: Postemergence herbicidal activity; details: scored after 2 weeks, 0 no injury, 100 complete kill
In short: as §2

[16] = system: giant foxtail (Setaria faberi); test: Postemergence herbicidal activity; details: scored after 2 weeks, 0 no injury, 100 complete kill
In short: as §2

[17] = system: morningglory (Ipomoea hederacea); test: Postemergence herbicidal activity; details: scored after 2 weeks, 0 no injury, 100 complete kill
In short: as §2

[18] = system: blackgrass (Alopecurus myosuroides); test: Postemergence herbicidal activity; details: scored after 2 weeks, 0 no injury, 100 complete kill
In short: as §2

[19] = system: wild buckwheat (Polygonum convolvulus); test: Postemergence herbicidal activity; details: scored after 2 weeks, 0 no injury, 100 complete kill
In short: as §2

[20] = system: velvetleaf (Abutilion theophrasti); test: Postemergence herbicidal activity; details: scored after 2 weeks, 0 no injury, 100 complete kill
In short: as §2

[21] = system: pigweed (Amaranthus retroflexus); test: Postemergence herbicidal activity; details: scored after 2 weeks, 0 no injury, 100 complete kill
In short: as §2

[22] = system: chickweed (Stellaria media); test: Postemergence herbicidal activity; details: scored after 2 weeks, 0 no injury, 100 complete kill
In short: as §2

wild oats (Avena fatua) [23] = test: Postemergence herbicidal activity; details: scored after 2 weeks, 0 no injury, 100 complete kill
In short: as §2

## COc1cc(OC)n2nc(NS(=O)(=O)c3c(C(F)(F)F)ccnc3F)nc2n1 [Compound 16]
[1]; 140 g/Ha
  Preemergence herbicidal activity SORBI: 40%
[2]; 140 g/Ha
  Preemergence herbicidal activity DIGSA: 0%
[3]; 140 g/Ha
  Preemergence herbicidal activity XANST: 40%
[4]; 140 g/Ha
  Preemergence herbicidal activity CHEAL: 20%
[5]; 140 g/Ha
  Preemergence herbicidal activity SETFA: 10%
[6]; 140 g/Ha
  Preemergence herbicidal activity IPOHE: 0%
[7]; 140 g/Ha
  Preemergence herbicidal activity ALOMY: 40%
[8]; 140 g/Ha
  Preemergence herbicidal activity ECHCG: 0%
[9]; 140 g/Ha
  Preemergence herbicidal activity ABUTH: 20%
[10]; 140 g/Ha
  Preemergence herbicidal activity EPHHL: 0%
[11]; 140 g/Ha
  Preemergence herbicidal activity AMARE: 85%
Wild oats (Avena fatua) [12]; 140 g/Ha
  Preemergence herbicidal activity AVEFA: 30%
Viola (Viola tricolor); 125 ppm
  Postemergence herbicidal activity VIOTR: 50%
[13]; 125 ppm
  Postemergence herbicidal activity SORBI: 50%
[14]; 125 ppm
  Postemergence herbicidal activity XANST: 0%
[15]; 125 ppm
  Postemergence herbicidal activity CHEAL: 40%
[16]; 125 ppm
  Postemergence herbicidal activity SETFA: 75%
[17]; 125 ppm
  Postemergence herbicidal activity IPOHE: 20%
[18]; 125 ppm
  Postemergence herbicidal activity ALOMY: 60%
[19]; 125 ppm
  Postemergence herbicidal activity POLCO: 20%
[20]; 125 ppm
  Postemergence herbicidal activity ABUTH: 10%
[21]; 125 ppm
  Postemergence herbicidal activity AMARE: 75%
[22]; 125 ppm
  Postemergence herbicidal activity STEME: 60%
Wild oats (Avena fatua) [23]; 125 ppm
  Postemergence herbicidal activity AVEFA: 50%

## CCOc1cccc(C(F)(F)F)c1S(=O)(=O)Nc1nc2nc(OC)cc(OC)n2n1 [Compound 14, N-(5,7-dimethoxy[1,2,4]triazolo[1,5-a]-pyrimidin-2-yl)-2-ethoxy-6-(trifluoromethyl)benzenesulfonamide]
[1]; 17.5 g/Ha
  Preemergence herbicidal activity SORBI: 85%
[2]; 17.5 g/Ha
  Preemergence herbicidal activity DIGSA: 80%
[3]; 17.5 g/Ha
  Preemergence herbicidal activity XANST: 70%
[4]; 17.5 g/Ha
  Preemergence herbicidal activity CHEAL: 95%
[5]; 17.5 g/Ha
  Preemergence herbicidal activity SETFA: 85%
[6]; 17.5 g/Ha
  Preemergence herbicidal activity IPOHE: 75%
[7]; 17.5 g/Ha
  Preemergence herbicidal activity ALOMY: 80%
[8]; 17.5 g/Ha
  Preemergence herbicidal activity ECHCG: 80%
[9]; 17.5 g/Ha
  Preemergence herbicidal activity ABUTH: 85%
[10]; 17.5 g/Ha
  Preemergence herbicidal activity EPHHL: 85%
[11]; 17.5 g/Ha
  Preemergence herbicidal activity AMARE: 95%
Wild oats (Avena fatua) [12]; 17.5 g/Ha
  Preemergence herbicidal activity AVEFA: 60%
Viola (Viola tricolor); 7.8 ppm
  Postemergence herbicidal activity VIOTR: 90%
[13]; 7.8 ppm
  Postemergence herbicidal activity SORBI: 70%
[14]; 7.8 ppm
  Postemergence herbicidal activity XANST: 100%
[15]; 7.8 ppm
  Postemergence herbicidal activity CHEAL: 100%
[16]; 7.8 ppm
  Postemergence herbicidal activity SETFA: 90%
[17]; 7.8 ppm
  Postemergence herbicidal activity IPOHE: 80%
[18]; 7.8 ppm
  Postemergence herbicidal activity ALOMY: 70%
[19]; 7.8 ppm
  Postemergence herbicidal activity POLCO: 90%
[20]; 7.8 ppm
  Postemergence herbicidal activity ABUTH: 90%
[21]; 7.8 ppm
  Postemergence herbicidal activity AMARE: 100%
[22]; 7.8 ppm
  Postemergence herbicidal activity STEME: 98%
Wild oats (Avena fatua) [23]; 7.8 ppm
  Postemergence herbicidal activity AVEFA: 50%

## COc1cc(OC)n2nc(NS(=O)(=O)c3c(OC(C)C)cccc3C(F)(F)F)nc2n1 [Compound 11]
[1]; 17.5 g/Ha
  Preemergence herbicidal activity SORBI: 90%
[2]; 17.5 g/Ha
  Preemergence herbicidal activity DIGSA: 80%
[3]; 17.5 g/Ha
  Preemergence herbicidal activity XANST: 90%
[4]; 17.5 g/Ha
  Preemergence herbicidal activity CHEAL: 100%
[5]; 17.5 g/Ha
  Preemergence herbicidal activity SETFA: 100%
[6]; 17.5 g/Ha
  Preemergence herbicidal activity IPOHE: 98%
[7]; 17.5 g/Ha
  Preemergence herbicidal activity ALOMY: 100%
[8]; 17.5 g/Ha
  Preemergence herbicidal activity ECHCG: 100%
[9]; 17.5 g/Ha
  Preemergence herbicidal activity ABUTH: 100%
[10]; 17.5 g/Ha
  Preemergence herbicidal activity EPHHL: 90%
[11]; 17.5 g/Ha
  Preemergence herbicidal activity AMARE: 100%
Wild oats (Avena fatua) [12]; 17.5 g/Ha
  Preemergence herbicidal activity AVEFA: 60%
Viola (Viola tricolor); 62.5 ppm
  Postemergence herbicidal activity VIOTR: 90%
[13]; 62.5 ppm
  Postemergence herbicidal activity SORBI: 50%
[14]; 62.5 ppm
  Postemergence herbicidal activity XANST: 100%
[15]; 62.5 ppm
  Postemergence herbicidal activity CHEAL: 100%
[16]; 62.5 ppm
  Postemergence herbicidal activity SETFA: 100%
[17]; 62.5 ppm
  Postemergence herbicidal activity IPOHE: 80%
[18]; 62.5 ppm
  Postemergence herbicidal activity ALOMY: 60%
[19]; 62.5 ppm
  Postemergence herbicidal activity POLCO: 100%
[20]; 62.5 ppm
  Postemergence herbicidal activity ABUTH: 100%
[21]; 62.5 ppm
  Postemergence herbicidal activity AMARE: 100%
[22]; 62.5 ppm
  Postemergence herbicidal activity STEME: 95%
Wild oats (Avena fatua) [23]; 62.5 ppm
  Postemergence herbicidal activity AVEFA: 30%
